Experimental findings from patent publication US6525021B1 (priority 1998, dated 2003) are described below.

On the set-up of assay [1]: species or system mice. The settings on record: mouse, in vivo.
Assay [2] deals with human neurotensin type 1 receptor (hNTR1) (Homo sapiens, UniProt P30989). Nature of the assay: biochemical. It is filed as binding.
Assay [3] deals with rat neurotensin type 1 receptor (rNTR1) (Rattus norvegicus, UniProt P20789). Put plainly: biochemical. The assay is classed as binding.
rat neurotensin type 1 receptor (rNTR1), sequence (P20789 whole entry, looked up): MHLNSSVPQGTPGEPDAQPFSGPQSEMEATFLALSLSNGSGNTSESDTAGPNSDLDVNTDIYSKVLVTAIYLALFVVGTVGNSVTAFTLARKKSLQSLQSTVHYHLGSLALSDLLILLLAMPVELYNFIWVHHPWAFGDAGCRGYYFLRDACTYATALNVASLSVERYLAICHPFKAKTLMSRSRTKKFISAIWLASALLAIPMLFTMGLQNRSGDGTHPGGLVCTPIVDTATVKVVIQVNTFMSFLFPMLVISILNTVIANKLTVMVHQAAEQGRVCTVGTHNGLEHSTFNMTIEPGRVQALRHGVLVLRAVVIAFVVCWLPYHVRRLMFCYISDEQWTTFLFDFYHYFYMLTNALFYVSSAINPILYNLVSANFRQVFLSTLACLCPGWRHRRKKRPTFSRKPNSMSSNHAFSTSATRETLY
A further assay addresses rNTR2 (Rattus norvegicus, UniProt Q63384). The assay is classed as cell-based.
The target in assay [4] is rat neurotensin type 2 receptor (rNTR2) (Rattus norvegicus, UniProt Q63384). Nature of the assay: biochemical. The assay is classed as binding.
rat neurotensin type 2 receptor (rNTR2), sequence (Q63384 whole entry, looked up): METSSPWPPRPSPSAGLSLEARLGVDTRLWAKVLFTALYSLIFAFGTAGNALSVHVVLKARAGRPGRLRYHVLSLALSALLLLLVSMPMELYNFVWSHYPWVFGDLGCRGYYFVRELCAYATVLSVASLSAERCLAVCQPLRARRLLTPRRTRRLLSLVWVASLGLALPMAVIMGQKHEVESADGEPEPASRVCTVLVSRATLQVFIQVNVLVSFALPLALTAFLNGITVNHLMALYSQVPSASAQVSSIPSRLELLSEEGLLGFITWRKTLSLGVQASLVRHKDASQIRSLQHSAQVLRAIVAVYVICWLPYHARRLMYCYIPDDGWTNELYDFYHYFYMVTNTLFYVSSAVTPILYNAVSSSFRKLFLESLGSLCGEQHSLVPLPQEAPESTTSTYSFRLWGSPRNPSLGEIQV
The target of assay [5] is solubilized mouse neurotensin type 3 receptor (mNTR3) (Mus musculus, UniProt Q6PHU5). Nature of the assay: biochemical. It is filed as binding.
solubilized mouse neurotensin type 3 receptor (mNTR3), sequence (Q6PHU5 74-825 limits assumed): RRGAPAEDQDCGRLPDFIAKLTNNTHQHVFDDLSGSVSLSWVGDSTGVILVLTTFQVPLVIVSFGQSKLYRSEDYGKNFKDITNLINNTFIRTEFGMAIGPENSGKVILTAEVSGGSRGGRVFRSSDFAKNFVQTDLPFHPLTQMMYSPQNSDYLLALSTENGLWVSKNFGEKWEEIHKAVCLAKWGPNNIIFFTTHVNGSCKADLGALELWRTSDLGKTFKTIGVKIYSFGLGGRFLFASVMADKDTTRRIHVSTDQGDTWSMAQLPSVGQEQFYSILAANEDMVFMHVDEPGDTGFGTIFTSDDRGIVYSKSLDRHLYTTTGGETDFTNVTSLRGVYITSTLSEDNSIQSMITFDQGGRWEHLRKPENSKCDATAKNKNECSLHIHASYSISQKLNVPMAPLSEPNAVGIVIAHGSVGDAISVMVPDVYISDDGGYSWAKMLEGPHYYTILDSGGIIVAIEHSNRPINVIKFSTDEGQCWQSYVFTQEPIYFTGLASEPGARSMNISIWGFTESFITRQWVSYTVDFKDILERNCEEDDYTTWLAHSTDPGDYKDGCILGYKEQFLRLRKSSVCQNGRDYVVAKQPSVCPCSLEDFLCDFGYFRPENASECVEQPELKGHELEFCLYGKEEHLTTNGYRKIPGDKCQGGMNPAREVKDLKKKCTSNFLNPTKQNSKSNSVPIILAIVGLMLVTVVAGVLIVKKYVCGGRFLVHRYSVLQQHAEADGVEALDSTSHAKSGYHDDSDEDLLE
Another assay deals with rNTR1 (Rattus norvegicus, UniProt P20789). Put plainly: cell-based. It is filed as cell-based.
rNTR1, sequence (P20789 whole entry, looked up): as the sequence (P20789 whole entry, looked up) above

Entries after “also recorded” stand apart in the source; their conditions may differ. Non-standard residues stand in square brackets, D forms with d. Residues, ends and D or L forms follow the SMILES beside them. *: point of attachment. X1 = CC(=O)N[C@@H]1[C@@H](O[C@@H]2O[C@H](CO)[C@H](O)[C@H](O)[C@H]2O)[C@@H](O)[C@@H](CO)O[C@@H]1*; pGlu = O=C1CC[C@@H](C(=O)O)N1

rNTR2, sequence (Q63384 whole entry, looked up): as the sequence (Q63384 whole entry, looked up) above
human neurotensin type 1 receptor (hNTR1), sequence (P30989 whole entry, looked up): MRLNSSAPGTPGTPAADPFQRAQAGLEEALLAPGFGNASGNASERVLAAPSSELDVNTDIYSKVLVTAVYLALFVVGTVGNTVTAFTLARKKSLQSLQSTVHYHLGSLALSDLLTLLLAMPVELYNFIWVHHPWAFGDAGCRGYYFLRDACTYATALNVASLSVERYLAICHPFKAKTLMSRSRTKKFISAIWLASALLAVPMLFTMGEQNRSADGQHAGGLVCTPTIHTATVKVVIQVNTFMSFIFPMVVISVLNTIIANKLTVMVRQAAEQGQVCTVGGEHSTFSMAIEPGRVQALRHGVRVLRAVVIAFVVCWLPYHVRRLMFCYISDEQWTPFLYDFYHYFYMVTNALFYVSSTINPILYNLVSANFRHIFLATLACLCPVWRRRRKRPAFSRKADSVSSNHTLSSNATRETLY

“Δ1-9-Ser10-contulakin-G containing the native glycosylation on Ser10 [analog B]”: in assay [1], the “activity (onset and recovery time) compared with analog A” value is recorded as “same activity”; the “time mice were drowsy” value stood at 100 min.
As for `CC[C@H](C)[C@H](NC(=O)[C@H](Cc1ccc(O)cc1)NC(=O)[C@@H]1CCCN1C(=O)[C@H](CCCCN)NC(=O)[C@H](CCCCN)NC(=O)[C@@H](NC(=O)[C@H](C)NC(=O)[C@H](CC(N)=O)NC(=O)[C@H](CO)NC(=O)CNC(=O)CNC(=O)[C@H](CCC(=O)O)NC(=O)[C@H](CCC(=O)O)NC(=O)[C@H](CO)NC(=O)[C@@H]1CCC(=O)N1)[C@@H](C)O[C@H]1O[C@H](CO)[C@H](O)[C@H](O[C@@H]2O[C@H](CO)[C@H](O)[C@H](O)[C@H]2O)[C@H]1NC(C)=O)C(=O)N[C@@H](CC(C)C)C(=O)O` [contulakin-G] ([pGlu]SEEGGSNAT(X1)KKPYIL-OH), the concentration for half-maximal inhibition (IC50) was 960 nM in assay [2], 524 nM in assay [3], 730 nM in assay [4] and 250 nM in assay [5]. The agonist response entry at rNTR2 is given as “No response; also recorded: absence of any agonistic effect”. Further, the EC50 at rNTR1 is 20 to 30 nM. The “agonistic efficacy compared with Neurotensin1-13” value on rNTR1 was “approximately half”. Besides, at rNTR1, the “mode of action on CHO cells expressing the rNTR1” value is reported as “acted as agonists”.

Usually IC50 stands for the midpoint of a concentration-inhibition curve. Lower therefore signals inhibition by little substance. In general, EC50 refers to the concentration that produces a half-maximal response. The low end stands for an effect from little substance, the high end for a need for much substance.
